Measured values: ChEMBL document CHEMBL1201862, “PubChem BioAssay data set” (2004)
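Assay format: 96-well plates, 48-hour exposure. GI50 is the concentration that inhibits growth by half.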 The source made the active and inactive calls. Rule as the data show it: active = GI50 up to about 1.1 µM and inactive = higher.

What was measured:
Test in all cases: NCI-60 cell line screen, 48 h
SN12C = tested on: SN12C
RXF 393 = tested on: RXF 393
786-0 = tested on: 786-0
SNB-19 = tested on: SNB-19
Malme-3M = tested on: Malme-3M
SNB-75 = tested on: SNB-75
K562 = tested on: K562
KM12 = tested on: KM12
HOP-62 = tested on: HOP-62
NCI-H226 = tested on: NCI-H226
M14 = tested on: M14
SK-MEL-5 = tested on: SK-MEL-5
NCI-H460 = tested on: NCI-H460
HOP-92 = tested on: HOP-92
IGROV-1 = tested on: IGROV-1
NCI/ADR-RES = tested on: NCI/ADR-RES
BT-549 = tested on: BT-549
U-251 = tested on: U-251
CCRF-CEM = tested on: CCRF-CEM
SK-OV-3 = tested on: SK-OV-3

Structure (SMILES) | GI50 (SN12C) | GI50 (RXF 393) | GI50 (786-0) | GI50 (SNB-19) | GI50 (Malme-3M) | GI50 (SNB-75) | GI50 (K562) | GI50 (KM12) | GI50 (HOP-62) | GI50 (NCI-H226) | GI50 (M14) | GI50 (SK-MEL-5) | GI50 (NCI-H460) | GI50 (HOP-92) | GI50 (IGROV-1) | GI50 (NCI/ADR-RES) | GI50 (BT-549) | GI50 (U-251) | GI50 (CCRF-CEM) | GI50 (SK-OV-3)
NCCCN1CCN(c2ccccc2)CC1 | > 100 µM (inactive) | > 100 µM (inactive) | > 100 µM (inactive) | > 100 µM (inactive) | > 100 µM (inactive) | > 100 µM (inactive) | > 100 µM (inactive) | > 100 µM (inactive) | 10.9 µM (inactive) | > 100 µM (inactive) | 35.3 µM (inactive) | > 100 µM (inactive) | > 100 µM (inactive) | 86.3 µM (inactive) | > 100 µM (inactive) | > 100 µM (inactive) | > 100 µM (inactive) | > 100 µM (inactive) | – | –
COc1cc(/C=C2/C[C@H]3[C@@H]4CC=C5C[C@@H](OC(C)=O)CC[C@]5(C)[C@H]4CC[C@]3(C)NC2=O)cc(OC)c1OC | 29.6 µM (inactive) | 17.3 µM (inactive) | 17.9 µM (inactive) | 15.9 µM (inactive) | 25.6 µM (inactive) | 22.5 µM (inactive) | 45.3 µM (inactive) | 47.4 µM (inactive) | 26.6 µM (inactive) | – | 36.5 µM (inactive) | 22.9 µM (inactive) | 32.7 µM (inactive) | 24.6 µM (inactive) | 30 µM (inactive) | 20 µM (inactive) | 22.5 µM (inactive) | 19.5 µM (inactive) | 49.4 µM (inactive) | 25.3 µM (inactive)
O=C1CC(c2ccc(O)cc2)C2(O1)C(=O)OC(C(O)CO)C2O (centres undefined) | > 100 µM (inactive) | > 100 µM (inactive) | > 100 µM (inactive) | > 100 µM (inactive) | 96.2 µM (inactive) | > 100 µM (inactive) | > 100 µM (inactive) | > 100 µM (inactive) | > 100 µM (inactive) | > 100 µM (inactive) | > 100 µM (inactive) | > 100 µM (inactive) | – | – | > 100 µM (inactive) | > 100 µM (inactive) | > 100 µM (inactive) | > 100 µM (inactive) | > 100 µM (inactive) | > 100 µM (inactive)
O=c1oc2ccc(Cl)cc2c2ccccc12 | > 100 µM (inactive) | 22.1 µM (inactive) | 40.1 µM (inactive) | 20 µM (inactive) | > 100 µM (inactive) | 39.2 µM (inactive) | > 100 µM (inactive) | – | 18.8 µM (inactive) | 27.5 µM (inactive) | > 100 µM (inactive) | 67.6 µM (inactive) | > 100 µM (inactive) | 23.2 µM (inactive) | 71.8 µM (inactive) | 84.1 µM (inactive) | 13.4 µM (inactive) | 15.1 µM (inactive) | > 100 µM (inactive) | –
CCOC(=O)/C(C(=O)Nc1ccc(F)cc1)=C(/N)N1CCOCC1 | > 100 µM (inactive) | > 100 µM (inactive) | > 100 µM (inactive) | > 100 µM (inactive) | > 100 µM (inactive) | > 100 µM (inactive) | > 100 µM (inactive) | > 100 µM (inactive) | > 100 µM (inactive) | > 100 µM (inactive) | > 100 µM (inactive) | – | > 100 µM (inactive) | – | > 100 µM (inactive) | > 100 µM (inactive) | > 100 µM (inactive) | > 100 µM (inactive) | > 100 µM (inactive) | > 100 µM (inactive)
COC(=O)[C@]1(C)CCC[C@@]2(C)C1CC[C@@]13C=C(C(C)C)[C@@H](CC1=O)CC23 (some centres undefined) | 19.8 µM (inactive) | 21.5 µM (inactive) | 25.9 µM (inactive) | 25.8 µM (inactive) | – | 59.7 µM (inactive) | 13.8 µM (inactive) | 34.5 µM (inactive) | 30.6 µM (inactive) | 21.1 µM (inactive) | 38.5 µM (inactive) | 16.5 µM (inactive) | 35.4 µM (inactive) | – | 35.2 µM (inactive) | 23 µM (inactive) | 23 µM (inactive) | 18.7 µM (inactive) | 17.7 µM (inactive) | 46.3 µM (inactive)
Cc1n[nH]c(=O)n1/N=C/c1c[nH]c2ccccc12 | > 100 µM (inactive) | 20.9 µM (inactive) | > 100 µM (inactive) | > 100 µM (inactive) | > 100 µM (inactive) | 32.9 µM (inactive) | > 100 µM (inactive) | > 100 µM (inactive) | > 100 µM (inactive) | – | > 100 µM (inactive) | – | > 100 µM (inactive) | > 100 µM (inactive) | 35.2 µM (inactive) | > 100 µM (inactive) | 38.4 µM (inactive) | > 100 µM (inactive) | > 100 µM (inactive) | > 100 µM (inactive)
c1ccc(C(CCN2CC3CCC(CC3)C2)c2ccccc2)cc1 | 26.4 µM (inactive) | 18.8 µM (inactive) | 17.3 µM (inactive) | 34.4 µM (inactive) | 16.3 µM (inactive) | 24.2 µM (inactive) | 18.4 µM (inactive) | 23.9 µM (inactive) | 27.5 µM (inactive) | 19.6 µM (inactive) | 14.3 µM (inactive) | 16.5 µM (inactive) | 15 µM (inactive) | 22.9 µM (inactive) | 31 µM (inactive) | 23.8 µM (inactive) | 42.2 µM (inactive) | 18.2 µM (inactive) | – | –
COC(=O)CCCc1ccc2c(c1)CCC2 | > 100 µM (inactive) | – | > 100 µM (inactive) | > 100 µM (inactive) | > 100 µM (inactive) | > 100 µM (inactive) | – | > 100 µM (inactive) | > 100 µM (inactive) | > 100 µM (inactive) | > 100 µM (inactive) | > 100 µM (inactive) | > 100 µM (inactive) | > 100 µM (inactive) | > 100 µM (inactive) | > 100 µM (inactive) | > 100 µM (inactive) | > 100 µM (inactive) | > 100 µM (inactive) | > 100 µM (inactive)
C/C(=N\NC(=S)N1CCCCCCCCCCCC1)c1ccccn1 | 0.238 µM (active) | 0.0769 µM (active) | 0.173 µM (active) | 0.659 µM (active) | 0.281 µM (active) | 0.243 µM (active) | 0.0223 µM (active) | 0.102 µM (active) | 0.132 µM (active) | 0.199 µM (active) | 0.214 µM (active) | 0.2 µM (active) | 0.256 µM (active) | 0.111 µM (active) | 0.212 µM (active) | 0.778 µM (active) | 0.0991 µM (active) | 0.0673 µM (active) | 0.0431 µM (active) | –
O=C(/C=C/C(=O)N1CCCC1)N1CCCC1 | > 100 µM (inactive) | > 100 µM (inactive) | > 100 µM (inactive) | > 100 µM (inactive) | > 100 µM (inactive) | – | > 100 µM (inactive) | > 100 µM (inactive) | > 100 µM (inactive) | – | > 100 µM (inactive) | > 100 µM (inactive) | > 100 µM (inactive) | > 100 µM (inactive) | > 100 µM (inactive) | > 100 µM (inactive) | > 100 µM (inactive) | > 100 µM (inactive) | > 100 µM (inactive) | > 100 µM (inactive)
COc1ccc2c(c1)CC[C@@H]1[C@@H]2CC[C@]2(C)C(=O)/C(=C/c3ccc(C#N)cc3)C[C@@H]12 | > 100 µM (inactive) | > 100 µM (inactive) | > 100 µM (inactive) | > 100 µM (inactive) | > 100 µM (inactive) | > 100 µM (inactive) | > 100 µM (inactive) | > 100 µM (inactive) | 97.1 µM (inactive) | > 100 µM (inactive) | > 100 µM (inactive) | > 100 µM (inactive) | > 100 µM (inactive) | – | > 100 µM (inactive) | > 100 µM (inactive) | > 100 µM (inactive) | > 100 µM (inactive) | > 100 µM (inactive) | > 100 µM (inactive)
COC(=O)C1(C(=O)OC)CC2=C(S(=O)(=O)c3ccccc3)C[C@@H](C#N)[C@H]2C1 | > 100 µM (inactive) | – | > 100 µM (inactive) | > 100 µM (inactive) | > 100 µM (inactive) | > 100 µM (inactive) | > 100 µM (inactive) | > 100 µM (inactive) | > 100 µM (inactive) | > 100 µM (inactive) | > 100 µM (inactive) | > 100 µM (inactive) | 91.4 µM (inactive) | 28.9 µM (inactive) | 52 µM (inactive) | > 100 µM (inactive) | 71.8 µM (inactive) | > 100 µM (inactive) | > 100 µM (inactive) | > 100 µM (inactive)
CC(C)(C)OC(=O)NC(Cc1ccc(O)cn1)C(=O)O (centres undefined) | > 100 µM (inactive) | > 100 µM (inactive) | > 100 µM (inactive) | > 100 µM (inactive) | > 100 µM (inactive) | > 100 µM (inactive) | > 100 µM (inactive) | > 100 µM (inactive) | > 100 µM (inactive) | > 100 µM (inactive) | – | > 100 µM (inactive) | > 100 µM (inactive) | > 100 µM (inactive) | > 100 µM (inactive) | > 100 µM (inactive) | > 100 µM (inactive) | > 100 µM (inactive) | > 10 µM (inactive) | –
O=C1/C(=C/c2cccc([N+](=O)[O-])c2)Cc2ccccc21 | > 100 µM (inactive) | – | > 100 µM (inactive) | > 100 µM (inactive) | > 100 µM (inactive) | > 100 µM (inactive) | > 100 µM (inactive) | 86.5 µM (inactive) | > 100 µM (inactive) | > 100 µM (inactive) | > 100 µM (inactive) | – | > 100 µM (inactive) | 75.3 µM (inactive) | > 100 µM (inactive) | > 100 µM (inactive) | > 100 µM (inactive) | 60.1 µM (inactive) | > 100 µM (inactive) | > 100 µM (inactive)
